From ChEMBL document CHEMBL5108028 (Bioorg Med Chem, 2022)
The source made the active and inactive calls. The rule behind the calls is not given here. Where a SMILES comes first, the peptide text is derived from it. [ ]: non-standard residue; d: D form. 2Thi = N[C@@H](Cc1cccs1)C(=O)O; hSer = N[C@@H](CCO)C(=O)O; Nle = CCCC[C@H](N)C(=O)O

What was measured:
MKN-74 = assay: Anticancer activity against human MKN-74 cells assessed as inhibition of cell growth incubated for 3 days by MTT assay; type: functional, cell-based; conditions: MKN-74, 72 h
MKN-7 = assay: Anticancer activity against human MKN-7 cells assessed as inhibition of cell growth incubated for 3 days by MTT assay; type: functional, cell-based; conditions: MKN-7, 72 h
[1] = target: T1, Cadherin-1 (Homo sapiens) (UniProt P12830); assay: Binding affinity to human E-cadherin in human MKN-7 cell membrane protein fraction measured after 2 hrs by Western blotting based pull-down assay; type: cell membranes
T1 sequence (whole entry): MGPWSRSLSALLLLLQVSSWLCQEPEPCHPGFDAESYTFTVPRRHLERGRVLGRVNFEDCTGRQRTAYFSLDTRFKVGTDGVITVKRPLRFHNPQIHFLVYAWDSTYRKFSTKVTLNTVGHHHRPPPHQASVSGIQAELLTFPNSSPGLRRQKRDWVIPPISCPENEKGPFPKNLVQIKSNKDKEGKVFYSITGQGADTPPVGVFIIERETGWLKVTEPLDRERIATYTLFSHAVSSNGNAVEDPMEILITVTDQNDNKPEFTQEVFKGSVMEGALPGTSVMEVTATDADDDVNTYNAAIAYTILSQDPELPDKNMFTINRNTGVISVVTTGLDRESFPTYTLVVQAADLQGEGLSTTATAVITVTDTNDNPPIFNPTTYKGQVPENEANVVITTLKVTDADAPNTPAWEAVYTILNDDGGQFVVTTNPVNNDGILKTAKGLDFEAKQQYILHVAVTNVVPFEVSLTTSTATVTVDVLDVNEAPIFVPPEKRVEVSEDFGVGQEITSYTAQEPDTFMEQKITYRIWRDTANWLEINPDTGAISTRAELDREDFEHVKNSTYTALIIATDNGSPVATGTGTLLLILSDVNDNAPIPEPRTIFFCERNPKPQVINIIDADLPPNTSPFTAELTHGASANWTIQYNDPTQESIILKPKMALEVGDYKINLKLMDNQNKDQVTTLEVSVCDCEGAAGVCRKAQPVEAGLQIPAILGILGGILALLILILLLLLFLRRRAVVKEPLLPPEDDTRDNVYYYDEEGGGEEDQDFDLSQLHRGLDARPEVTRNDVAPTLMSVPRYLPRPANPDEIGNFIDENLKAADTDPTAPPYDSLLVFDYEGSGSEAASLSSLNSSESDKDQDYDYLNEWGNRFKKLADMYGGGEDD

Row | Compound | IC50 (MKN-74) | IC50 (MKN-7) | Activity [1]
1 | H-FIDLNYMVAM-OH | 1.11 µM | 4.24 µM | 
2 | CCCC[C@H](NC(=O)[C@H](Cc1ccc(O)cc1)NC(=O)[C@H](CC(N)=O)NC(=O)[C@H](CC(C)C)NC(=O)[C@H](CC(=O)O)NC(=O)[C@@H](NC(=O)[C@@H](N)Cc1ccccc1)[C@@H](C)CC)C(=O)N[C@H](C(=O)N[C@@H](Cc1ccc(O)cc1)C(=O)N[C@@H](CCSC)C(N)=O)C(C)C (H-FIDLNY[Nle]VYM-NH2) | 0.2 µM | 1.64 µM | 
3 | H-FIDLNYLVYM-NH2 | 0.16 µM | 3.36 µM | 
4 | H-IDLNYMVYM-NH2 | 25.7 µM | 11.4 µM | 
5 | H-AIDLNYMVYM-OH | 9.29 µM | 4.03 µM | 
6 | CC[C@H](C)[C@H](NC(=O)[C@@H](N)Cc1ccccc1)C(=O)N[C@@H](CC(=O)O)C(=O)N[C@@H](CC(C)C)C(=O)N[C@@H](CC(N)=O)C(=O)N[C@@H](Cc1ccc(O)cc1)C(=O)N[C@@H](CCSC)C(=O)N[C@H](C(=O)N[C@@H](Cc1ccc(O)cc1)C(=O)N[C@@H](CCOC)C(N)=O)C(C)C (H-FIDLNYMVY[hSer](Me)-NH2) | 0.19 µM | 4.43 µM | 
7 | H-FIDLNYMVYA-OH | 4.5 µM | 8.78 µM | 
8 | H-FIDLNYMVYL-NH2 | 1.09 µM | 9.81 µM | 
9 | H-DLNYMVYM-NH2 | 20.7 µM | 13.5 µM | 
10 | H-FIDLAYMVYM-OH | 8.84 µM | 5.8 µM | 
11 | H-FIDLNYMVY-NH2 | 17.9 µM | 4.3 µM | 
12 | H-FIDLNYMVYM-NH2 | 0.37 µM | 1.13 µM | 
13 | H-YMVYMFQYDS-OH |  | 79.1 µg/mL | 
14 | H-FIDLNYMVYF-NH2 | 0.25 µM | 6.87 µM | 
15 | CC[C@H](C)[C@H](NC(=O)[C@@H](N)Cc1ccccc1)C(=O)N[C@@H](CC(=O)O)C(=O)N[C@@H](CC(C)C)C(=O)N[C@@H](CC(N)=O)C(=O)N[C@@H](Cc1ccc(O)cc1)C(=O)N[C@@H](CCOC)C(=O)N[C@H](C(=O)N[C@@H](Cc1ccc(O)cc1)C(=O)N[C@@H](CCSC)C(N)=O)C(C)C (H-FIDLNY[hSer](Me)VYM-NH2) | 0.2 µM | 3.51 µM | 
16 | H-FIDLNYMAYM-OH | 16.3 µM | 14.8 µM | 
17 | CCCC[C@H](NC(=O)[C@H](Cc1ccc(O)cc1)NC(=O)[C@H](CC(N)=O)NC(=O)[C@H](CC(C)C)NC(=O)[C@H](CC(=O)O)NC(=O)[C@@H](NC(=O)[C@@H](N)Cc1ccccc1)[C@@H](C)CC)C(=O)N[C@H](C(=O)N[C@@H](Cc1ccc(O)cc1)C(=O)N[C@@H](CCOC)C(N)=O)C(C)C (H-FIDLNY[Nle]VY[hSer](Me)-NH2) | 0.07 µM | 0.61 µM | 
18 | H-KVDIVAINDP-OH |  | 97.3 µg/mL | 
19 | H-FIDLNAMVYM-OH | 1.14 µM | 2.62 µM | 
20 | H-FIDLNYAVYM-OH | 9.05 µM | 3.01 µM | 
21 | H-FADLNYMVYM-OH | 3.91 µM | 4.38 µM | 
22 | H-FIALNYMVYM-OH | 1.14 µM | 0.98 µM | 
23 | CCCC[C@H](NC(=O)[C@H](Cc1ccc(O)cc1)NC(=O)[C@@H](NC(=O)[C@H](CCSC)NC(=O)[C@H](Cc1ccc(O)cc1)NC(=O)[C@H](CC(N)=O)NC(=O)[C@H](CC(C)C)NC(=O)[C@H](CC(=O)O)NC(=O)[C@@H](NC(=O)[C@@H](N)Cc1ccccc1)[C@@H](C)CC)C(C)C)C(N)=O (H-FIDLNYMVY[Nle]-NH2) | 0.35 µM | 10.2 µM | 
24 | H-FIDANYMVYM-OH | 5.47 µM | 9.56 µM | 
25 | CC[C@H](C)[C@H](NC(=O)[C@@H](N)Cc1ccccc1)C(=O)N[C@@H](CC(=O)O)C(=O)N[C@@H](CC(C)C)C(=O)N[C@@H](CC(N)=O)C(=O)N[C@@H](Cc1ccc(O)cc1)C(=O)N[C@@H](CCSC)C(=O)N[C@H](C(=O)N[C@@H](Cc1ccc(O)cc1)C(=O)N[C@@H](Cc1cccs1)C(N)=O)C(C)C (H-FIDLNYMVY[2Thi]-NH2) | 0.98 µM | 8.62 µM | 
26 | H-FIDLNYMV-NH2 | 21.6 µM | 8.22 µM | 
27 | CC[C@H](C)[C@H](NC(=O)[C@@H](N)Cc1ccccc1)C(=O)N[C@@H](CC(=O)O)C(=O)N[C@@H](CC(C)C)C(=O)N[C@@H](CC(N)=O)C(=O)N[C@@H](Cc1ccc(O)cc1)C(=O)N[C@@H](Cc1cccs1)C(=O)N[C@H](C(=O)N[C@@H](Cc1ccc(O)cc1)C(=O)N[C@@H](CCSC)C(N)=O)C(C)C (H-FIDLNY[2Thi]VYM-NH2) | 0.96 µM | 6.35 µM | 
28 | H-FIDLNYFVYM-NH2 | 1.59 µM | 8.23 µM | 
29 | H-FIDLNYMVYM-OH | 13.2 µg/mL | 18.9 µg/mL | Active
